Laboratory results published in ChEMBL document CHEMBL3045986, “Antifungal activity of prenylated flavonoids isolated from Tephrosia apollinea L. against four phytopathogenic fungi” (2013).
Converted amounts (≈) assume the structure as drawn.

Columns and labels:
Assay type in all cases: functional
[1] = system: Helminthosporium; assay: Antifungal activity against Helminthosporium sp. assessed as growth inhibition at 25 degC after 48 hr by two-fold broth macrodilution method
[2] = system: Helminthosporium; assay: Antifungal activity against Helminthosporium sp. assessed as growth inhibition at 2 mg/ml at 25 degC by agar well diffusion bioassay; details: read-out: GI
[3] = system: Pestalotiopsis sp.; assay: Antifungal activity against Pestalotiopsis sp. assessed as growth inhibition at 25 degC after 48 hr by two-fold broth macrodilution method
[4] = system: Helminthosporium; assay: Antifungal activity against Helminthosporium sp. assessed as growth inhibition at 4 mg/ml at 25 degC by agar well diffusion bioassay; details: read-out: GI
[5] = system: Colletotrichum acutatum; assay: Antifungal activity against Colletotrichum acutatum assessed as growth inhibition at 3 mg/ml at 25 degC by agar well diffusion bioassay; details: read-out: GI
[6] = system: Colletotrichum acutatum; assay: Antifungal activity against Colletotrichum acutatum assessed as growth inhibition at 2 mg/ml at 25 degC by agar well diffusion bioassay; details: read-out: GI
[7] = system: Alternaria alternata; assay: Antifungal activity against Alternaria alternata assessed as growth inhibition at 3 mg/ml at 25 degC by agar well diffusion bioassay; details: read-out: GI
[8] = system: Pestalotiopsis sp.; assay: Antifungal activity against Pestalotiopsis sp. assessed as growth inhibition at 2 mg/ml at 25 degC by agar well diffusion bioassay; details: read-out: GI
[9] = system: Helminthosporium; assay: Antifungal activity against Helminthosporium sp. assessed as growth inhibition at 1 mg/ml at 25 degC by agar well diffusion bioassay; details: read-out: GI
[10] = system: Alternaria alternata; assay: Antifungal activity against Alternaria alternata assessed as growth inhibition at 1 mg/ml at 25 degC by agar well diffusion bioassay; details: read-out: GI
[11] = system: Alternaria alternata; assay: Antifungal activity against Alternaria alternata assessed as growth inhibition at 2 mg/ml at 25 degC by agar well diffusion bioassay; details: read-out: GI
[12] = system: Pestalotiopsis sp.; assay: Antifungal activity against Pestalotiopsis sp. assessed as growth inhibition at 4 mg/ml at 25 degC by agar well diffusion bioassay; details: read-out: GI
[13] = system: Colletotrichum acutatum; assay: Antifungal activity against Colletotrichum acutatum assessed as growth inhibition at 4 mg/ml at 25 degC by agar well diffusion bioassay; details: read-out: GI
[14] = system: Alternaria alternata; assay: Antifungal activity against Alternaria alternata assessed as growth inhibition at 25 degC after 48 hr by two-fold broth macrodilution method
[15] = system: Pestalotiopsis sp.; assay: Antifungal activity against Pestalotiopsis sp. assessed as growth inhibition at 3 mg/ml at 25 degC by agar well diffusion bioassay; details: read-out: GI
[16] = system: Alternaria alternata; assay: Antifungal activity against Alternaria alternata assessed as growth inhibition at 4 mg/ml at 25 degC by agar well diffusion bioassay; details: read-out: GI
[17] = system: Pestalotiopsis sp.; assay: Antifungal activity against Pestalotiopsis sp. assessed as growth inhibition at 1 mg/ml at 25 degC by agar well diffusion bioassay; details: read-out: GI
[18] = system: Colletotrichum acutatum; assay: Antifungal activity against Colletotrichum acutatum assessed as growth inhibition at 1 mg/ml at 25 degC by agar well diffusion bioassay; details: read-out: GI
[19] = system: Colletotrichum acutatum; assay: Antifungal activity against Colletotrichum acutatum assessed as growth inhibition at 25 degC after 48 hr by two-fold broth macrodilution method
[20] = system: Helminthosporium; assay: Antifungal activity against Helminthosporium sp. assessed as growth inhibition at 3 mg/ml at 25 degC by agar well diffusion bioassay; details: read-out: GI

| SMILES | MIC [1] | MIC [3] | MIC [14] | MIC [19] | inhibition of growth at 2000 µg/mL [2] | inhibition of growth at 4000 µg/mL [4] | inhibition of growth at 3000 µg/mL [5] | inhibition of growth at 2000 µg/mL [6] | inhibition of growth at 3000 µg/mL [7] | inhibition of growth at 2000 µg/mL [8] | inhibition of growth at 1000 µg/mL [9] | inhibition of growth at 1000 µg/mL [10] | inhibition of growth at 2000 µg/mL [11] | inhibition of growth at 4000 µg/mL [12] | inhibition of growth at 4000 µg/mL [13] | inhibition of growth at 3000 µg/mL [15] | inhibition of growth at 4000 µg/mL [16] | inhibition of growth at 1000 µg/mL [17] | inhibition of growth at 1000 µg/mL [18] | inhibition of growth at 3000 µg/mL [20] |
| --- | --- | --- | --- | --- | --- | --- | --- | --- | --- | --- | --- | --- | --- | --- | --- | --- | --- | --- | --- | --- |
| COC(=O)Nc1nc2ccccc2[nH]1 [CARBENDAZIM] | 70 mg/L (≈ 366 µM) | 70 mg/L (≈ 366 µM) | 125 mg/L (≈ 654 µM) | 70 mg/L (≈ 366 µM) | 61.1% | 79% | 73.9% | 60.3% | 63% | 61.3% | 44.2% | 43.1% | 56.7% | 70.6% | 78.9% | 68.4% | 67.8% | 47.7% | 50.6% | 66.3% |
| COc1ccc2c(=O)cc(-c3ccccc3)oc2c1/C=C/C(C)(C)O [LANCEOLATIN-A] | 500 mg/L (≈ 1490 µM) | 500 mg/L (≈ 1490 µM) | 1000 mg/L (≈ 2970 µM) | 500 mg/L (≈ 1490 µM) | 7.7% | 16% | 22.6% | 15.2% | 8.1% | 16.3% | 4.1% | 3.3% | 6.6% | 29.7% | 32.6% | 23.8% | 14.1% | 8.4% | 10% | 10.7% |
| CC(=O)OC(C1COc2ccc3c(=O)cc(-c4ccccc4)oc3c21)C(C)(C)O (stereo not given) [TEPHROAPOLLIN-F] | 250 mg/L (≈ 634 µM) | 250 mg/L (≈ 634 µM) | 500 mg/L (≈ 1270 µM) | 125 mg/L (≈ 317 µM) | 24.6% | 46.5% | 40.3% | 31.9% | 23.3% | 26.1% | 18% | 11.9% | 16% | 51.7% | 58.3% | 45.1% | 32.8% | 21.7% | 23.3% | 36.3% |

More lines, main results first:

| MIC [1] | MIC [3] | MIC [14] | MIC [19] | SMILES | inhibition of growth at 2000 µg/mL [2] | inhibition of growth at 4000 µg/mL [4] | inhibition of growth at 3000 µg/mL [5] | inhibition of growth at 2000 µg/mL [6] | inhibition of growth at 3000 µg/mL [7] | inhibition of growth at 2000 µg/mL [8] | inhibition of growth at 1000 µg/mL [9] | inhibition of growth at 1000 µg/mL [10] | inhibition of growth at 2000 µg/mL [11] | inhibition of growth at 4000 µg/mL [12] | inhibition of growth at 4000 µg/mL [13] | inhibition of growth at 3000 µg/mL [15] | inhibition of growth at 4000 µg/mL [16] | inhibition of growth at 1000 µg/mL [17] | inhibition of growth at 1000 µg/mL [18] | inhibition of growth at 3000 µg/mL [20] |
| --- | --- | --- | --- | --- | --- | --- | --- | --- | --- | --- | --- | --- | --- | --- | --- | --- | --- | --- | --- | --- |
| 1000 mg/L (≈ 2380 µM) | 1000 mg/L (≈ 2380 µM) | 1000 mg/L (≈ 2380 µM) | 250 mg/L (≈ 595 µM) | CC(=O)O[C@@H]1C(C)(C)OC(=O)[C@@]12COc1ccc3c(=O)cc(-c4ccccc4)oc3c12 [ISOGLABRATEPHRIN] | 16.3% | 32.6% | 37% | 25.3% | 10.7% | 14.4% | 7.4% | 3.2% | 8.4% | 27.5% | 42.9% | 17% | 16.1% | 6.3% | 14.4% | 28.9% |
| 250 mg/L (≈ 595 µM) | 500 mg/L (≈ 1190 µM) | 500 mg/L (≈ 1190 µM) | 250 mg/L (≈ 595 µM) | CC(=O)O[C@@H]1C(C)(C)OC(=O)[C@]12COc1ccc3c(=O)cc(-c4ccccc4)oc3c12 [(+)-GLABRATEPHRIN] | 11.6% | 37.8% | 32.6% | 26.4% | 17% | 11.8% | 13.9% | 5.3% | 10% | 31.9% | 46.4% | 20.8% | 24.1% | 8% | 16.1% | 23.3% |
